# In patent US20030236212A1, “Functionalized long chain derivatives as acyl coenzyme-A mimics, compositions thereof, and methods of cholesterol management and related uses” (priority 2002, published 2003):
# Where two headings read alike, the source gives them in different places.
# Assays:
# primary rat hepatocytes = assay: Synthesis of total lipids (14C-acetate labeling) in primary rat hepatocytes; type: cell-based; details: for IC50: Rattus norvegicus, Hepatocyte, read-out: IC50, inhibition of lipid synthesis in primary hepatocytes
# Protocol: A male Sprague-Dawley rate was anesthetized by administration of sodium pentobarbitol by intraperitoneal at 80 mg/kg. In situ perfusion of the liver was performed as follows. The abdomen of the animal was opened, the portal vein canulated, and the liver perfused with WOSH solution (149 mM NaCl, 9.2 mM Na HEPES, 1.7 mM Fructose, 0.5 mM EGTA, 0.029 mM Phenol red, 10 U/ml heparin, pH 7.5) at a flow rate of 30 ml/min for 6 minutes. To digest the liver, DSC solution (6.7 mM KCl, 143 mM NaCl, 9.2 mM Na HEPES, 5 mM CaCl2-2H2O, 1.7 mM Fructose, 0.029 mM Phenol red, 0.2% BSA, 100 U/ml collagenase Type 1,160 BAEE/ml trypsin inhibitor, pH 7.5) was perfused through the liver at a flow rate of 30 ml/min for 6 minutes at a temperature of 37° C. After digestion, cells were dispersed in a solution of DMEM-(DMEM containing 2 mM GlutMax-1, 0.2% BSA, 5% FBS, 12 nM insulin, 1.2 μM hydrocortisone) to stop the digestion process. The crude cell suspension was filtered through three layers of stainless steel mesh with pore sizes of 250, 106, and 75 μm respectively. Filtered cells were centrifuged at 50×g for two minutes and the supernatant discarded. The resulting cell pellet was resuspended in DMEM and centrifuged again. This final cell pellet was resuspended in DMEM+HS solution (DMEM containing 2 mM GlutMax-1, 20 mM delta-aminolevulinic acid, 17.4 mM MEM nonessential amino acids, 20% FBS, 12 nM insulin, 1.2 μM hydrocortisone) and plated to form monolayer cultures at a density of 100×10^3 cells/cm^2 on collagen coated culture dishes.
# To test the effect of an illustrative compound of the invention on synthesis rates of total lipids, the monolayer cultures were exposed to 1, 3, 10, 30, 100, or 300 μM of Compound A or 10 μM of Compound 1 in DMEM+containing 1 μCi/ml 14C-acetate, D-glucose, hepes, glutamine, leucine, alanine, lactate, pyruvate, non-essential amino acids, BSA, and gentamicine. Control cells were exposed to the same media lacking lovastatin or the test compounds. All cells were exposed to 0.1% DMSO. Metabolic labeling with ^14C-acetate continued for 4 hr at 37° C. After labeling, cells were washed twice with 1 mL of PBS followed by addition of scintallant (Microscent E) and counted on Topcount®.
# obese female Zucker rats = assay: Oral daily treatment of obese female Zucker rats for 14 days (body weight, serum lipids, glucose, insulin); type: in vivo, rat; parameters: HDL-C / Glucose / Insulin / NEFA / BHA / TG / TC / Non HDL-C: unit not given here; details: for change in vivo at 10 mg/kg/day / change in vivo at 10 mg/kg / change in vivo at 30 mg/kg/day / change in vivo at 30 mg/kg / change in vivo at 100 mg/kg/day / change in vivo at 100 mg/kg: Rattus norvegicus, 336 h, oral daily, fourteen days; for change in vivo at 10 mg/kg/day / change in vivo at 30 mg/kg/day / change in vivo at 100 mg/kg/day: read-out: % wt. gain; for change in vivo at 10 mg/kg/day / change in vivo at 10 mg/kg: 10 mg/kg/day; for change in vivo at 30 mg/kg/day / change in vivo at 30 mg/kg: 30 mg/kg/day; for change in vivo at 100 mg/kg/day / change in vivo at 100 mg/kg: 100 mg/kg/day
# Protocol: The dosing vehicle was administered to control animals in parallel experiments.
# Body weight was determined daily prior to dosing. Animals were allowed free access to rodent chow and water throughout the study. Blood glucose was determined after a 6-hour fast in the afternoon without anesthesia from a tail vein. Serum was also prepared from a blood sample subsequently obtained from the orbital venous plexus (with O2/CO2 anesthesia) prior to and after one week treatment and used lipid and insulin determinations. At two weeks, blood glucose was again determined after a 6-hour fast without anesthesia from a tail vein. Soon thereafter, animals were sacrificed by CO2 inhalation in the afternoon and cardiac blood serum was collected and assessed for various lipids and insulin.
# [1] = obese female Zucker rats, oral gavage daily 14 days, 5 mg/kg
# [2] = obese female Zucker rats, oral, 14 days, 100 mg/kg/day (Table 1)
# [3] = obese female Zucker rats, read-out: BHA, Percent Change from Pre-treatment
# [4] = obese female Zucker rats, read-out: Glucose, Percent Change from Pre-treatment
# [5] = obese female Zucker rats, read-out: HDL-C, Percent Change from Pre-treatment
# [6] = obese female Zucker rats, read-out: Insulin, Percent Change from Pre-treatment
# [7] = obese female Zucker rats, read-out: NEFA, Percent Change from Pre-treatment
# [8] = obese female Zucker rats, read-out: Non HDL-C, Percent Change from Pre-treatment
# [9] = obese female Zucker rats, read-out: TC, Percent Change from Pre-treatment
# [10] = obese female Zucker rats, read-out: TG, Percent Change from Pre-treatment
compound,measurement,setting,value
CC(C)(CCCCCOCCCCCC(C)(C)COP(=O)(O)O)COP(=O)(O)O,IC50,primary rat hepatocytes,28 µM
"CC(=O)C(CCCCC(C)(C)CO)CCCCC(C)(C)CO [Compound G, 9-Hydroxy-3-(6-hydroxy-5,5-dimethylhexyl)-8,8-dimethylnonan-2-one]",melting point,,178 to 180 °C
CC(C)(CCCCCC(=O)CCCCCC(C)(C)COP(=O)(O)O)COP(=O)(O)O,IC50,primary rat hepatocytes,35 µM
CC(=O)C(CCCCC(C)(C)CO)CCCCC(C)(C)CO [drawing 124],IC50,primary rat hepatocytes,62 µM
"CC(C)(CO)CCCCOCCCCC(C)(C)CO [Compound 1, bis(6-Hydroxy-5,5-dimethylhexyl)ether, reference compound]",blood glucose levels,"obese female Zucker rats; fasted obese female Zucker rats, oral gavage daily 14 days, 5 mg/kg",reduction
same,serum insulin relative to pretreatment,"obese female Zucker rats; fasted obese female Zucker rats, two weeks of treatment, 5 mg/kg",increased
same,liver to body weight,obese female Zucker rats; [1],increased
same,serum total cholesterol,obese female Zucker rats; [1],only modestly elevated
same,"weight gain, percent of initial weight after two weeks",obese female Zucker rats; [1],1.5%
same,BHA,obese female Zucker rats; [2],1.6 ± 0.3
same,Glucose,obese female Zucker rats; [2],−25.3 ± 7.2
same,HDL-C,obese female Zucker rats; [2],113.9 ± 26.4
same,Insulin,obese female Zucker rats; [2],42.1 ± 23
same,NEFA,obese female Zucker rats; [2],0.056 ± 0.002
same,Non HDL-C,obese female Zucker rats; [2],−26.9 ± 9.3
same,TC,obese female Zucker rats; [2],−82.5 ± 3.6
same,TG,obese female Zucker rats; [2],468.8 ± 139.7
same,reduction of rates of total lipid synthesis,"primary rat hepatocytes; rat hepatocyte cells, 10 μM, 14C-acetate 4 hr, vs vehicle control",at least 65%
CC(C)(CO)CCCCN(O)CCCCC(C)(C)CO [drawing 125],IC50,primary rat hepatocytes,64 µM
CC(C)(CO)CCCCOC(=O)CCCCC(C)(C)CO [drawing 126],IC50,primary rat hepatocytes,14 µM
"CC(C)(CCCCCC(=O)CCCCCC(C)(C)COP(=O)(O)O)COP(=O)(O)O.N.N [Compound E, Phosphoric Acid mono-(2,2,14,14-tetramethyl-8-oxo-15-phosphonooxy-pentadecyl) Ester, Diammonium Salt]",change in vivo at 10 mg/kg/day,obese female Zucker rats; obese female Zucker rats,11%
same,change in vivo at 10 mg/kg,obese female Zucker rats; [3],140%
same,change in vivo at 10 mg/kg,obese female Zucker rats; [4],-6%
same,change in vivo at 10 mg/kg,obese female Zucker rats; [5],129%
same,change in vivo at 10 mg/kg,obese female Zucker rats; [6],25%
same,change in vivo at 10 mg/kg,obese female Zucker rats; [7],-5%
same,change in vivo at 10 mg/kg,obese female Zucker rats; [8],6%
same,change in vivo at 10 mg/kg,obese female Zucker rats; [9],3%
same,change in vivo at 10 mg/kg,obese female Zucker rats; [10],39%
same,change in vivo at 30 mg/kg/day,obese female Zucker rats; obese female Zucker rats,10%
same,change in vivo at 30 mg/kg,obese female Zucker rats; [3],73%
same,change in vivo at 30 mg/kg,obese female Zucker rats; [4],-1%
same,change in vivo at 30 mg/kg,obese female Zucker rats; [5],174%
same,change in vivo at 30 mg/kg,obese female Zucker rats; [6],-12%
same,change in vivo at 30 mg/kg,obese female Zucker rats; [7],-28%
same,change in vivo at 30 mg/kg,obese female Zucker rats; [8],51%
same,change in vivo at 30 mg/kg,obese female Zucker rats; [9],126%
same,change in vivo at 30 mg/kg,obese female Zucker rats; [10],-2%
same,change in vivo at 100 mg/kg/day,obese female Zucker rats; obese female Zucker rats,4%
same,change in vivo at 100 mg/kg,obese female Zucker rats; [3],134%
same,change in vivo at 100 mg/kg,obese female Zucker rats; [4],-4%
same,change in vivo at 100 mg/kg,obese female Zucker rats; [5],246%
same,change in vivo at 100 mg/kg,obese female Zucker rats; [6],-15%
same,change in vivo at 100 mg/kg,obese female Zucker rats; [7],-40%
same,change in vivo at 100 mg/kg,obese female Zucker rats; [8],20%
same,change in vivo at 100 mg/kg,obese female Zucker rats; [9],161%
same,change in vivo at 100 mg/kg,obese female Zucker rats; [10],-51%
same,melting point,,187 to 189 °C
"CC(C)(CCCCC(=O)CCCCC(C)(C)COP(=O)(O)O)COP(=O)(O)O.N.N [Compound D, Phosphoric Acid mono-(2,2,12,12-tetramethyl-7-oxo-13-phosphonooxytridecyl) ester, diammonium salt]",change in vivo at 10 mg/kg/day,obese female Zucker rats; obese female Zucker rats,12%
same,change in vivo at 10 mg/kg,obese female Zucker rats; [3],123%
same,change in vivo at 10 mg/kg,obese female Zucker rats; [4],-5%
same,change in vivo at 10 mg/kg,obese female Zucker rats; [5],5%
same,change in vivo at 10 mg/kg,obese female Zucker rats; [6],4%
same,change in vivo at 10 mg/kg,obese female Zucker rats; [7],-13%
same,change in vivo at 10 mg/kg,obese female Zucker rats; [8],25%
same,change in vivo at 10 mg/kg,obese female Zucker rats; [9],8%
same,change in vivo at 10 mg/kg,obese female Zucker rats; [10],11%
same,change in vivo at 30 mg/kg/day,obese female Zucker rats; obese female Zucker rats,9%
same,change in vivo at 30 mg/kg,obese female Zucker rats; [3],271%
same,change in vivo at 30 mg/kg,obese female Zucker rats; [4],-4%
same,change in vivo at 30 mg/kg,obese female Zucker rats; [5],28%
same,change in vivo at 30 mg/kg,obese female Zucker rats; [6],2%
same,change in vivo at 30 mg/kg,obese female Zucker rats; [7],-25%
same,change in vivo at 30 mg/kg,obese female Zucker rats; [8],22%
same,change in vivo at 30 mg/kg,obese female Zucker rats; [9],21%
same,change in vivo at 30 mg/kg,obese female Zucker rats; [10],-12%
same,change in vivo at 100 mg/kg/day,obese female Zucker rats; obese female Zucker rats,8%
same,change in vivo at 100 mg/kg,obese female Zucker rats; [3],814%
same,change in vivo at 100 mg/kg,obese female Zucker rats; [4],-3%
same,change in vivo at 100 mg/kg,obese female Zucker rats; [5],57%
same,change in vivo at 100 mg/kg,obese female Zucker rats; [6],14%
same,change in vivo at 100 mg/kg,obese female Zucker rats; [7],-22%
same,change in vivo at 100 mg/kg,obese female Zucker rats; [8],71%
same,change in vivo at 100 mg/kg,obese female Zucker rats; [9],55%
same,change in vivo at 100 mg/kg,obese female Zucker rats; [10],-1%
same,melting point,,191 to 193 °C
CC(C)(CCCCOCCCCC(C)(C)COP(=O)(O)O)COP(=O)(O)O,IC50,primary rat hepatocytes,43 µM
CC(C)(CO)CCCCN(O)CCCCC(C)(C)CO [Compound I],melting point,,73 °C
CC(C)(CCCCC(=O)CCCCC(C)(C)COP(=O)(O)O)COP(=O)(O)O,IC50,primary rat hepatocytes,16 µM
